# Like-named read-outs stand apart in the source and are kept apart here. Where no end group is shown, it is not given here.
# Assays:
# CoaBa [1] = assay: Anti-CoaBa IgG subtypes induced with TLR4 agonist, ELISA (Example 10); assay type: in vivo, C57/BL/6 mice; design: unit not given here; details: booster day 14, serum 14 days post-secondary
# CoaBa [2] = assay: as above; assay type: in vivo, C57/BL/6 mice; design: Mean total IgG / Mean IgG1 / Mean IgG2b: unit not given here; details: for Mean IgG1 / Mean IgG2b / Mean total IgG: booster day 14, serum 14 days post-secondary
# Experimental: Female C57/BL/6 mice aged 6-8 weeks old (5 per group) were vaccinated intramuscularly with […] of CoaBa-CRM conjugate in combination with indicated dose of TLR4 agonist Adjuvant A. A booster with respective dose of adjuvant combination with 1 μg of CoaBa-CRM conjugate was administered 14 days post primary. ELISA data are from serum collected 14 days postsecondary vaccination boost. (A) Total IgG, (B) IgG1, (C) IgG2a isotypes are shown.
# CoaBa1 hapten = assay: Adjuvant system for CoaB-CRM conjugate, total serum IgG ELISA (Example 9); assay type: in vivo, C57/BL/6 mice; details: for Mean Log10 total serum IgG titer: booster day 14, serum 14 days post-secondary
# Experimental: The lead CoaB vaccines consist of a peptide hapten conjugated to CRM197. To determine whether TLR7 and TLR4 adjuvants would provide a beneficial effect on antibody titres or provide a dose sparing effect, female C57/BL/6 mice aged 6-8 weeks old (10 per group) were vaccinated intramuscularly with 1 μg of CoaBa-CRM conjugate in combination with indicated dose of (Adjuvant B), a TLR 7/8 adjuvant, and or (Adjuvant A) a TLR4 adjuvant. A booster with respective dose of adjuvant combination with […] of CoaBa-CRM conjugate was administered 14 days post primary. ELISA data is from serum collected 14 days post-secondary vaccination boost.
# CoaBa2 = assay: Total IgG ELISA, plate coated with CoaBa2 (Example 11); assay type: in vivo, C57/BL/6 mice; details: for Total IgG ELISA plate coated with CoaBa2: 1 μg conjugate IM, with 1 μg Adj A where named, booster day 14, serum 14 days post-secondary
# Experimental: (§1) Female C57/BL/6 mice aged 6-8 weeks old (8 per group) were vaccinated intramuscularly with 1 μg of CoaBa-CRM or […] of CoaBb-CRM conjugate in combination with […] dose of TLR 4 agonist Adjuvant A. A booster with 1 μg dose of Adjuvant A adjuvant combination with 1 μg of respective conjugate was administered 14 days post primary. ELISA data is from serum collected 14 days post-secondary vaccination boost. CoaBa1 within-clade cross reactive immunity against coaBa2 was determined. (Tables 15 and 16). Clade A CoaBa cross-reactive immunity against Clade B CoaBb epitope was determined. (Table 17).
# CoaBa1 = assay: Total IgG ELISA, plate coated with CoaBa1 (Example 11); assay type: in vivo, C57/BL/6 mice; details: for Total IgG ELISA plate coated with CoaBa1: 1 μg conjugate IM, with 1 μg Adj A where named, booster day 14, serum 14 days post-secondary; for cross-reactivity to CoaBa1 (in words): vaccination, Tables 16 and 17 cited in text
# Experimental: as §1
# CoaBb1 = assay: Total IgG ELISA, plate coated with CoaBb1 (Example 11); assay type: in vivo, C57/BL/6 mice; details: 1 μg conjugate IM, with 1 μg Adj A where named; booster day 14; serum 14 days post-secondary
# Experimental: as §1
# [3] = cited from earlier work
# sheep red blood cells = details: cited from earlier work
# [4] = target: CoaBa (Pseudomonas aeruginosa filamentous (Pf) bacteriophage); assay: anti-CoaBa serum ELISA; 14 days post boost; C57BL/6
# [5] = 0.001 μg Adj A with 1 μg CoaBa-CRM conjugate IM
# [6] = 0.01 μg Adj A with 1 μg CoaBa-CRM conjugate IM
# [7] = 0.1 μg Adj A with 1 μg CoaBa-CRM conjugate IM
# [8] = 10 μg Adj A with 1 μg CoaBa-CRM conjugate IM
# [9] = 0.0001 μg Adj A with 1 μg CoaBa-CRM conjugate IM
# [10] = 1 μg Adj A with 1 μg CoaBa-CRM conjugate IM
molecule,measurement,setting,value
CCCCCCCCCCC[C@H](CC(=O)NCCO[C@@H]1OC(CO)[C@@H](OS(=O)(=O)O)[C@H](NC(=O)C[C@@H](CCCCCCCCCCC)OC(=O)CCCCCCCCC)C1NC(=O)C[C@@H](CCCCCCCCCCC)OC(=O)CCCCCCCCC)OC(=O)CCCCCCCCC (stereo partly shown) [Adjuvant A],Mean IgG2b,CoaBa [1]; [5],1.22
same,Mean IgG2b,CoaBa [1]; [6],2.45
same,Mean IgG2b,CoaBa [1]; [7],3.90
same,Mean IgG2b,CoaBa [1]; [8],3.31
same,Mean IgG1,CoaBa [2]; [9],0.95
same,Mean IgG2b,CoaBa [2]; [9],1.02
same,Mean total IgG,CoaBa [2]; [9],1.27
same,Mean IgG1,CoaBa [2]; [5],1.86
same,Mean total IgG,CoaBa [2]; [5],2.38
same,Mean IgG1,CoaBa [2]; [6],1.99
same,Mean total IgG,CoaBa [2]; [6],3.15
same,Mean IgG1,CoaBa [2]; [7],2.45
same,Mean total IgG,CoaBa [2]; [7],4.00
same,Mean IgG1,CoaBa [2]; [10],3.60
same,Mean IgG2b,CoaBa [2]; [10],4.31
same,Mean total IgG,CoaBa [2]; [10],4.19
same,Mean IgG1,CoaBa [2]; [8],2.88
same,Mean total IgG,CoaBa [2]; [8],4.25
same,IgG subtype analysis (in words),CoaBa [2]; adjuvanting CoaBa with Adjuvant A,elicited both IgG1 and IgG2b subclasses
same,Mean Log10 total serum IgG titer,CoaBa1 hapten; [6],3.74 Log10
same,Mean Log10 total serum IgG titer,CoaBa1 hapten; [7],4.55 Log10
same,Mean Log10 total serum IgG titer,CoaBa1 hapten; [10],5.12 Log10
same,antibody titers against the CoaBa1 hapten (in words),CoaBa1 hapten; vaccine dose experiments with 1 μg CoaBa-CRM conjugate,produced the highest antibody titers against the CoaBa1 hapten
CoaBa1: CoaBa1 hapten-CRM197 conjugate vaccine (GVIDTSAVESAITDGQGD; not fully specified),Total IgG ELISA plate coated with CoaBa2,CoaBa2,0.5
same,cross-reactivity to CoaBa2-CRM197 (in words),"CoaBa2; vaccination, Table 15 cited in text",produced cross-reactivity to CoaBa2-CRM197
same,Total IgG ELISA plate coated with CoaBa1,CoaBa1,0.50
same,Total IgG ELISA plate coated with CoaBb1,CoaBb1,0.5
CoaBa2: CoaBa2 hapten-CRM197 conjugate vaccine (GSVIDTSAVEAAITEGKGD; not fully specified),Total IgG ELISA plate coated with CoaBa2,CoaBa2,0.5
same,Total IgG ELISA plate coated with CoaBa1,CoaBa1,0.50
same,cross-reactivity to CoaBa1 (in words),CoaBa1,produced cross-reactivity to CoaBa1-CRM197
"CoaBb1: CoaBb-CRM conjugate vaccine, subclade b1 (ADSLIDETTKEVLTQAGTDG; also: conjugated to CRM carrier, site not given here)",cross-reactivity to CoaBa1 (in words),CoaBa1,did not produce cross-reactive immunity to clade A subtypes CoaBa1
same,Total IgG ELISA plate coated with CoaBb1,CoaBb1,0.5
QS-17,critical micellar concentration,[3]; in phosphate buffered saline,0.03 % (w/v)
same,critical micellar concentration,[3]; in water,0.06 % (w/v)
same,concentrations causing hemolysis of sheep red blood cells,sheep red blood cells,≥ 25000 ng/mL
QS-18,critical micellar concentration,[3]; in phosphate buffered saline,0.02 % (w/v)
same,critical micellar concentration,[3]; in water,0.04 % (w/v)
QS-21,critical micellar concentration,[3]; in phosphate buffered saline,~0.02 % (w/v)
same,critical micellar concentration,[3]; in water,about 0.03 % (w/v)
same,concentrations causing hemolysis of sheep red blood cells,sheep red blood cells,≥ 25000 ng/mL
serum of naïve (unvaccinated) mice,Mean IgG1,[4],0.5
same,Mean IgG2b,[4],0.5
same,Mean total IgG,[4],0.5

# Reference: patent publication US20240325517A1, “COMPOSITIONS AND METHODS TARGETING FILAMENTOUS BACTERIOPHAGE” (THE UNIVERSITY OF MONTANA, priority 2020, published 2024)
